Results: the kinase profiling compilation of Christmann-Franck et al. (2016)

Key:
Assay in all cases: KINOMEscan competition binding
Conditions in all cases: compound 10.0 µM
MET (human) = MET (human) (UniProt P08581)
MARK2 (human) = MARK2 (human) (UniProt Q7KZI7)
IRAK3 (human) = IRAK3 (human) (UniProt Q9Y616)
CSNK1G2 (human) = CSNK1G2 (human) (UniProt P78368)
MAPK3 (human) = MAPK3 (human) (UniProt P27361)
LTK (human) = LTK (human) (UniProt P29376)
CSNK1E (human) = CSNK1E (human) (UniProt P49674)
CSF1R (human) = CSF1R (human) (UniProt P07333)
PKN1 (human) = PKN1 (human) (UniProt Q16512)
DCLK2 (human) = DCLK2 (human) (UniProt Q8N568)
PIK3CG (human) = PIK3CG (human) (UniProt P48736)
MAP3K11 (human) = MAP3K11 (human) (UniProt Q16584)
PIM1 (human) = PIM1 (human) (UniProt P11309)
BMPR2 (human) = BMPR2 (human) (UniProt Q13873)
CHEK2 (human) = CHEK2 (human) (UniProt O96017)
RIOK1 (human) = RIOK1 (human) (UniProt Q9BRS2)
LYN (human) = LYN (human) (UniProt P07948)
RAF1 (human) = RAF1 (human) (UniProt P04049)
MAPK6 (human) = MAPK6 (human) (UniProt Q16659)
[1] = test system: FLT3 (human), P36888 [D835H]
INSR (human) = INSR (human) (UniProt P06213)
EPHB3 (human) = EPHB3 (human) (UniProt P54753)
PIP5K1A (human) = PIP5K1A (human) (UniProt Q99755)
NUAK2 (human) = NUAK2 (human) (UniProt Q9H093)
MAP4K2 (human) = MAP4K2 (human) (UniProt Q12851)

Sequence of PKN1 (human) (Q16512 whole entry, looked up): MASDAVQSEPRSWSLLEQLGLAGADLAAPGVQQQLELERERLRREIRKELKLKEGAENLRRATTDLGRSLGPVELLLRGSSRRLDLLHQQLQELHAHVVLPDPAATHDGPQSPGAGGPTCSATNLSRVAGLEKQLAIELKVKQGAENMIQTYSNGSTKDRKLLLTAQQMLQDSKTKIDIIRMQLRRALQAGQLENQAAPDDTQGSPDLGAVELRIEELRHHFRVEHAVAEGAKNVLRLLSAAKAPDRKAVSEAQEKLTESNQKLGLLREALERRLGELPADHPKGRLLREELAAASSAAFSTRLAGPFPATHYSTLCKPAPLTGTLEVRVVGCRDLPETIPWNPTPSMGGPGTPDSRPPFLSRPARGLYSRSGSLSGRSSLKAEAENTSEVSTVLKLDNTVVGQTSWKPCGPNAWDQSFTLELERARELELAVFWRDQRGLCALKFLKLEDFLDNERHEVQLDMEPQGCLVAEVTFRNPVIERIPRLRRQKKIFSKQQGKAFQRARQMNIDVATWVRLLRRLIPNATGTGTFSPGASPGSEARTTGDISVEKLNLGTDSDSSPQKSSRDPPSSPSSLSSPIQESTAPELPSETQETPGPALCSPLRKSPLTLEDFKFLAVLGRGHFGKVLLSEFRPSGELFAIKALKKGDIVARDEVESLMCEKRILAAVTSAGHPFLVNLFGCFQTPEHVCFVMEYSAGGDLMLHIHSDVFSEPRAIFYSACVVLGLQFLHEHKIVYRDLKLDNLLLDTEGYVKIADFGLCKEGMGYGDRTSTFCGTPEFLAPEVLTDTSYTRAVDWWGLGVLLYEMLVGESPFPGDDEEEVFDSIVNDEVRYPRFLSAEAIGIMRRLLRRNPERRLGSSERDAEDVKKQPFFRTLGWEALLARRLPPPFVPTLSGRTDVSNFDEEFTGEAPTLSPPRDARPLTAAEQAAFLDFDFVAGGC
Sequence of NUAK2 (human) (Q9H093 whole entry, looked up): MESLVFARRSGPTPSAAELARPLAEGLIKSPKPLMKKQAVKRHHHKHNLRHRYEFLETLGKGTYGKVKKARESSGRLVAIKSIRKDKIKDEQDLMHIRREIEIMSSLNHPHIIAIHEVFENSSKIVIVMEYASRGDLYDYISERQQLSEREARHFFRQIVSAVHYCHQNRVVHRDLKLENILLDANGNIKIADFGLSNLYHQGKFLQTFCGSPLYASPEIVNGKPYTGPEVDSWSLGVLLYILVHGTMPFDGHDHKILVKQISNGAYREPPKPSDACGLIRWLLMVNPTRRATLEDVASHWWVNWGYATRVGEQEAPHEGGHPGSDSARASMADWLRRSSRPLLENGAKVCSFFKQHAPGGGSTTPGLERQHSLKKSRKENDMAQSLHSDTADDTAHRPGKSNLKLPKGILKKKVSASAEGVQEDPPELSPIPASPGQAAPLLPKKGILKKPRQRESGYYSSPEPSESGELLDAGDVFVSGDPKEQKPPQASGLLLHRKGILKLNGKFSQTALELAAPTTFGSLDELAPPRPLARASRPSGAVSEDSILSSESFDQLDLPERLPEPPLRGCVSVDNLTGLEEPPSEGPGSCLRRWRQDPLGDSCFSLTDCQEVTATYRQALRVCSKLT
Sequence of PIK3CG (human) (P48736 whole entry, looked up): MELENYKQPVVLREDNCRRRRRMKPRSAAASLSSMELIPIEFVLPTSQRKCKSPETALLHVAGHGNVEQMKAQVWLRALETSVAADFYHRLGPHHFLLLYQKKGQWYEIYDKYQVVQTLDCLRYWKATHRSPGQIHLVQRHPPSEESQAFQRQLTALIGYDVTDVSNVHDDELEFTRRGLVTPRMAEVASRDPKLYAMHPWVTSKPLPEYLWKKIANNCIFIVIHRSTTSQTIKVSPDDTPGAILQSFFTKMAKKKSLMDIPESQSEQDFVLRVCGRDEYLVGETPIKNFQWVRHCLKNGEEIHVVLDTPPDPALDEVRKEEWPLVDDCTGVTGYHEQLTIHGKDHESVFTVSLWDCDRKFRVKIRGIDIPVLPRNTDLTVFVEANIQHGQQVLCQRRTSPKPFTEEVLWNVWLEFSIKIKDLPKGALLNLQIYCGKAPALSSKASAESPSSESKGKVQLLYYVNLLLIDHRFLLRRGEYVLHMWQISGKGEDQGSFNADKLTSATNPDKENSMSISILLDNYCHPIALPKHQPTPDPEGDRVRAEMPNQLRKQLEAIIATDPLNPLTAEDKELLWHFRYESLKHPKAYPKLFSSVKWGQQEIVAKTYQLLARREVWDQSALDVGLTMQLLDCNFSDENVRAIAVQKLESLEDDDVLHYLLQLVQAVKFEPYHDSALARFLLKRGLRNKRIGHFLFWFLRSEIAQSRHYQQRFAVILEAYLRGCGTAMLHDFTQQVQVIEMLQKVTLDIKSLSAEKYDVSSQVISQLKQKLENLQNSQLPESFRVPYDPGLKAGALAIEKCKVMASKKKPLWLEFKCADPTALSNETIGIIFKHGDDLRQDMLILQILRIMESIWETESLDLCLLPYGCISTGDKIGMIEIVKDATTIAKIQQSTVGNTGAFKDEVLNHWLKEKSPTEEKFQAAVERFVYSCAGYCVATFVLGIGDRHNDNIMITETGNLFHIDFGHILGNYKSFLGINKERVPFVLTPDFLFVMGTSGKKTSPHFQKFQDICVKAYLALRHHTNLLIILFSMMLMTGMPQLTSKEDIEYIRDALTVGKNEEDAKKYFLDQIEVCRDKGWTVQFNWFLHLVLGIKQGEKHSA
Sequence of MARK2 (human) (Q7KZI7 whole entry, looked up): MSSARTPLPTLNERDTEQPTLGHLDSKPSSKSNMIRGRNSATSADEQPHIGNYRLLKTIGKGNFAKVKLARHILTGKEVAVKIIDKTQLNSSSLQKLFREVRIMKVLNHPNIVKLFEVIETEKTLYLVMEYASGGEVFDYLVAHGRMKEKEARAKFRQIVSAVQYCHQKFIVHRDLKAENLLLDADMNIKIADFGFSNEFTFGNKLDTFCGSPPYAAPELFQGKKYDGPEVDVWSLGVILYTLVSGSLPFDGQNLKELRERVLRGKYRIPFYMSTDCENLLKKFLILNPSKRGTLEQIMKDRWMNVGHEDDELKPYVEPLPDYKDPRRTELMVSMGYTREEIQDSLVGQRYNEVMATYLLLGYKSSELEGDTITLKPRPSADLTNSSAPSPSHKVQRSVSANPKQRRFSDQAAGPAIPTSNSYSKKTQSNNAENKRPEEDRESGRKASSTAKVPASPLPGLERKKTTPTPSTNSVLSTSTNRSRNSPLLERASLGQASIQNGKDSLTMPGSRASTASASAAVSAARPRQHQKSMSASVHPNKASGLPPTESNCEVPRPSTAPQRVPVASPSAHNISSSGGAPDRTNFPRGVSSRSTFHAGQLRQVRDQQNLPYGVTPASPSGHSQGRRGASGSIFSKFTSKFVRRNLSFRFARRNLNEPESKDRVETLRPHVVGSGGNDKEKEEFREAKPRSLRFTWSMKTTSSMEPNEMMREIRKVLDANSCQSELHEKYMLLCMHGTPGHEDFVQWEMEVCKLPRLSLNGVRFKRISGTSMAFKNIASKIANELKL
Sequence of DCLK2 (human) (Q8N568 whole entry, looked up): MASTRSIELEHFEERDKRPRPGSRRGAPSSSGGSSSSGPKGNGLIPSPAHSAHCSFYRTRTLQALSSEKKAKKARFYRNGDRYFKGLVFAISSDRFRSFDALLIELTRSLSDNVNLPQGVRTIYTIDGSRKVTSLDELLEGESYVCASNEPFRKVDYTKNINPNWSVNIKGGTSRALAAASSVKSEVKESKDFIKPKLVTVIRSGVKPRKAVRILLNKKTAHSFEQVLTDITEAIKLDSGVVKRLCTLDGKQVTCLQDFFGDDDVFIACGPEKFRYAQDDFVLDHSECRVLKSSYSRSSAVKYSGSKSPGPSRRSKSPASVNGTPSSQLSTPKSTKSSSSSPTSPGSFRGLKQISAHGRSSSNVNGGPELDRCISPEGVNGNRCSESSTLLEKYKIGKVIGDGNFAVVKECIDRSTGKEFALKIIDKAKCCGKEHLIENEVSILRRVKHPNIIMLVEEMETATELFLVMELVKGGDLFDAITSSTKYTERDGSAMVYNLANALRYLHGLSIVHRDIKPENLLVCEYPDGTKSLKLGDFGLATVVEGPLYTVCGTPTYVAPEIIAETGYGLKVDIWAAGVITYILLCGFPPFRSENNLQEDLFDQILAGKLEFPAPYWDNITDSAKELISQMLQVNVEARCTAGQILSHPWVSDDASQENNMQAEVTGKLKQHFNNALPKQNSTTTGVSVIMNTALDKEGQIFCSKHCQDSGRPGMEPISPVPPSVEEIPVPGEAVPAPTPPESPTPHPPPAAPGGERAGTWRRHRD
Sequence of MAPK3 (human) (P27361 whole entry, looked up): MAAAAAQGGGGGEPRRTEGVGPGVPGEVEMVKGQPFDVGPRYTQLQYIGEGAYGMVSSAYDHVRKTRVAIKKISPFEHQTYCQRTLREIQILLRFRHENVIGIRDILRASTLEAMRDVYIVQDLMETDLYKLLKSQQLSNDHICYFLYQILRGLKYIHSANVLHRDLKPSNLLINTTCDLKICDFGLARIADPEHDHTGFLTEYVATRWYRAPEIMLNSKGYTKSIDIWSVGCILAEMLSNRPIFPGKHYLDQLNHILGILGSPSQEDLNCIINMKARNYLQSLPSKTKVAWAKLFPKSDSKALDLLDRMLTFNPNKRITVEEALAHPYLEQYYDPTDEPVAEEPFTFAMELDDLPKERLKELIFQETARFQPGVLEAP
Sequence of CSNK1G2 (human) (P78368 whole entry, looked up): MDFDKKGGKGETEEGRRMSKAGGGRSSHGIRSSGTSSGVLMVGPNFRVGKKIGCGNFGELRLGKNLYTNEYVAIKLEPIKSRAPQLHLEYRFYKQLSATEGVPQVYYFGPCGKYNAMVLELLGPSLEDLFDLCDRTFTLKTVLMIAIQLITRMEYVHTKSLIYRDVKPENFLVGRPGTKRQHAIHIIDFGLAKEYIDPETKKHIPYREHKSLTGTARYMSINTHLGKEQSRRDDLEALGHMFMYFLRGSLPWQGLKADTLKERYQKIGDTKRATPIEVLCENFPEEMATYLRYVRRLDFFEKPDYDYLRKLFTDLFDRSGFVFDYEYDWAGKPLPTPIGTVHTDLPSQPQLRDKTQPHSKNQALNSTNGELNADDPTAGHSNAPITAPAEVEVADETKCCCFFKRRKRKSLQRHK

| SMILES | kinase still bound, per cent of control (MET (human)) | kinase still bound, per cent of control (MARK2 (human)) | kinase still bound, per cent of control (IRAK3 (human)) | kinase still bound, per cent of control (CSNK1G2 (human)) | kinase still bound, per cent of control (MAPK3 (human)) | kinase still bound, per cent of control (LTK (human)) | kinase still bound, per cent of control (CSNK1E (human)) | kinase still bound, per cent of control (CSF1R (human)) | kinase still bound, per cent of control (PKN1 (human)) | kinase still bound, per cent of control (DCLK2 (human)) | kinase still bound, per cent of control (PIK3CG (human)) | kinase still bound, per cent of control (MAP3K11 (human)) | kinase still bound, per cent of control (PIM1 (human)) | kinase still bound, per cent of control (BMPR2 (human)) | kinase still bound, per cent of control (CHEK2 (human)) | kinase still bound, per cent of control (RIOK1 (human)) | kinase still bound, per cent of control (LYN (human)) | kinase still bound, per cent of control (RAF1 (human)) | kinase still bound, per cent of control (MAPK6 (human)) | kinase still bound, per cent of control [1] | other results |
| --- | --- | --- | --- | --- | --- | --- | --- | --- | --- | --- | --- | --- | --- | --- | --- | --- | --- | --- | --- | --- | --- |
| Cc1n[nH]c2ccc(-c3cncc(OC[C@@H](N)Cc4c[nH]c5ccccc45)c3)cc12 | 100% | 13% | 30% | 0.65% | 100% | 100% | 0.05% | 100% | 0% | 100% | 100% | 100% | 0.4% | 100% | 100% | 2.8% | 100% | 100% | 100% | 5% | kinase still bound, per cent of control (INSR (human)): 100%; kinase still bound, per cent of control (EPHB3 (human)): 100%; kinase still bound, per cent of control (PIP5K1A (human)): 9.4%; kinase still bound, per cent of control (NUAK2 (human)): 1.9%; kinase still bound, per cent of control (MAP4K2 (human)): 8.8% |
| CNC(=O)c1ccc(Nc2cc(Nc3ccccc3S(=O)(=O)C(C)C)c3cc[nH]c3n2)nc1 | 1% | 33% | 15% | 3.1% | 100% | 0% | 29% | 30% | 0% | 100% | 100% | 7.2% | 100% | 7.9% | 100% | 2% | 22% | 100% | 100% | 0.65% | kinase still bound, per cent of control (INSR (human)): 0.4%; kinase still bound, per cent of control (EPHB3 (human)): 100%; kinase still bound, per cent of control (PIP5K1A (human)): 4.6%; kinase still bound, per cent of control (NUAK2 (human)): 0.4%; kinase still bound, per cent of control (MAP4K2 (human)): 11% |
| C=CC(=O)Nc1ccc(CN(C(=O)Nc2c(Cl)c(OC)cc(OC)c2Cl)c2cc(Nc3ccc(N4CCN(C)CC4)cc3)ncn2)cc1 | 100% | 100% | 100% | 100% | 100% | 27% | 100% | 0% | 100% | 100% | 100% | 10% | 100% | 8.9% | 100% | 100% | 5% | 100% | 100% | 16% | kinase still bound, per cent of control (INSR (human)): 24%; kinase still bound, per cent of control (EPHB3 (human)): 100%; kinase still bound, per cent of control (PIP5K1A (human)): 100%; kinase still bound, per cent of control (NUAK2 (human)): 100%; kinase still bound, per cent of control (MAP4K2 (human)): 100% |
